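Assay format: 96-well plates, 48-hour exposure. TGI denotes the concentration required for complete inhibition of growth.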
Experiments:
Test in all cases: DTP human tumour cell line panel, 48 h
786-0 renal = system: 786-0 renal
A498 renal = system: A498 renal
A549 NSCLC = system: A549 NSCLC
ACHN renal = system: ACHN renal
BT-549 breast = system: BT-549 breast
CAKI-1 renal = system: CAKI-1 renal
CCRF-CEM leukemia = system: CCRF-CEM leukemia
COLO 205 colon = system: COLO 205 colon
DU-145 prostate = system: DU-145 prostate
EKVX NSCLC = system: EKVX NSCLC
HCC-2998 colon = system: HCC-2998 colon
HCT-116 colon = system: HCT-116 colon
HCT-15 colon = system: HCT-15 colon
HL-60(TB) leukemia = system: HL-60(TB) leukemia
HOP-62 NSCLC = system: HOP-62 NSCLC
HOP-92 NSCLC = system: HOP-92 NSCLC
HS 578T breast = system: HS 578T breast
HT29 colon = system: HT29 colon
IGROV1 ovarian = system: IGROV1 ovarian
K-562 leukemia = system: K-562 leukemia
KM12 colon = system: KM12 colon
LOX IMVI melanoma = system: LOX IMVI melanoma
M14 melanoma = system: M14 melanoma
MALME-3M melanoma = system: MALME-3M melanoma
MCF7 breast = system: MCF7 breast
MDA-MB-231 breast = system: MDA-MB-231 breast
MDA-MB-435 = system: MDA-MB-435
MDA-N = system: MDA-N
MOLT-4 leukemia = system: MOLT-4 leukemia
NCI-H226 lung = system: NCI-H226 lung
NCI-H23 lung = system: NCI-H23 lung
NCI-H460 lung = system: NCI-H460 lung
NCI-H522 lung = system: NCI-H522 lung
NCI/ADR-RES ovarian = system: NCI/ADR-RES ovarian
OVCAR-3 ovarian = system: OVCAR-3 ovarian
OVCAR-4 ovarian = system: OVCAR-4 ovarian
OVCAR-5 ovarian = system: OVCAR-5 ovarian
OVCAR-8 ovarian = system: OVCAR-8 ovarian
PC-3 prostate = system: PC-3 prostate
RPMI-8226 leukemia = system: RPMI-8226 leukemia
RXF 393 renal = system: RXF 393 renal
SF-268 CNS = system: SF-268 CNS
SF-295 CNS = system: SF-295 CNS
SF-539 CNS = system: SF-539 CNS
SK-MEL-2 melanoma = system: SK-MEL-2 melanoma
SK-MEL-28 melanoma = system: SK-MEL-28 melanoma
SK-MEL-5 melanoma = system: SK-MEL-5 melanoma
SK-OV-3 ovarian = system: SK-OV-3 ovarian
SN12C renal = system: SN12C renal
SNB-19 CNS = system: SNB-19 CNS
SNB-75 CNS = system: SNB-75 CNS
SR leukemia = system: SR leukemia
SW-620 colon = system: SW-620 colon
T-47D breast = system: T-47D breast
TK-10 renal = system: TK-10 renal
U251 CNS = system: U251 CNS
UACC-257 melanoma = system: UACC-257 melanoma
UACC-62 melanoma = system: UACC-62 melanoma
UO-31 renal = system: UO-31 renal

## CCOC(=O)C(Cc1ccc(N(CCCl)CCCl)cc1)NC(=O)CCCN1C(=O)CN=C(c2ccccc2)c2cc(Cl)ccc21 (centres undefined)
786-0 renal
  TGI: > 77.5 µM
A498 renal
  TGI: > 100 µM
A549 NSCLC
  TGI: > 100 µM
ACHN renal
  TGI: 22.5 µM
BT-549 breast
  TGI: > 100 µM
CAKI-1 renal
  TGI: > 55.7 µM
CCRF-CEM leukemia
  TGI: > 100 µM
COLO 205 colon
  TGI: 37.8 µM
DU-145 prostate
  TGI: > 64.7 µM
EKVX NSCLC
  TGI: > 100 µM
HCC-2998 colon
  TGI: > 49.7 µM
HCT-116 colon
  TGI: > 100 µM
HCT-15 colon
  TGI: > 100 µM
HL-60(TB) leukemia
  TGI: 7.51 µM
HOP-62 NSCLC
  TGI: > 100 µM
HOP-92 NSCLC
  TGI: 8.85 µM
HS 578T breast
  TGI: 52 µM
HT29 colon
  TGI: > 100 µM
IGROV1 ovarian
  TGI: 16.9 µM
K-562 leukemia
  TGI: > 100 µM
KM12 colon
  TGI: > 100 µM
LOX IMVI melanoma
  TGI: 8.99 µM
M14 melanoma
  TGI: 22.3 µM
MALME-3M melanoma
  TGI: 7.71 µM
MCF7 breast
  TGI: > 100 µM
MDA-MB-231 breast
  TGI: 78.6 µM
MDA-MB-435
  TGI: > 59.5 µM
MDA-N
  TGI: 19.1 µM
MOLT-4 leukemia
  TGI: > 100 µM
NCI-H226 lung
  TGI: 97 µM
NCI-H23 lung
  TGI: > 39 µM
NCI-H460 lung
  TGI: > 100 µM
NCI-H522 lung
  TGI: 13.2 µM
NCI/ADR-RES ovarian
  TGI: > 87.1 µM
OVCAR-3 ovarian
  TGI: 5.32 µM
OVCAR-4 ovarian
  TGI: 98.3 µM
OVCAR-5 ovarian
  TGI: > 100 µM
OVCAR-8 ovarian
  TGI: > 100 µM
PC-3 prostate
  TGI: > 100 µM
RPMI-8226 leukemia
  TGI: 20.7 µM
RXF 393 renal
  TGI: 8.77 µM
SF-268 CNS
  TGI: 71.5 µM
SF-295 CNS
  TGI: > 100 µM
SF-539 CNS
  TGI: 16.3 µM
SK-MEL-2 melanoma
  TGI: 29.9 µM
SK-MEL-28 melanoma
  TGI: 8.35 µM
SK-MEL-5 melanoma
  TGI: 25.2 µM
SK-OV-3 ovarian
  TGI: > 100 µM
SN12C renal
  TGI: 14.5 µM
SNB-19 CNS
  TGI: > 100 µM
SNB-75 CNS
  TGI: 51.3 µM
SR leukemia
  TGI: > 27.3 µM
SW-620 colon
  TGI: > 62.3 µM
T-47D breast
  TGI: 11.2 µM
TK-10 renal
  TGI: > 100 µM
U251 CNS
  TGI: > 100 µM
UACC-257 melanoma
  TGI: 8.31 µM
UACC-62 melanoma
  TGI: 5.95 µM
UO-31 renal
  TGI: 30.8 µM

Reference: PubChem BioAssay (NCI)
